Reference: patent US9815866B2, “Peptides that bind to epithelial cell adhesion molecule” (JAPANESE FOUNDATION FOR CANCER RESEARCH, priority 2012, dated 2017)
Bridge positions count the residues as written; N and C are the ends. Peptide text beside a SMILES is read from it.

Key:
EpCAM [1] = target: T1, EpCAM (Homo sapiens, UniProt P16422); conditions: peptide separated from the phage; earlier work (Patent Literature 2); cited from earlier work
T1 sequence (P16422 24-314): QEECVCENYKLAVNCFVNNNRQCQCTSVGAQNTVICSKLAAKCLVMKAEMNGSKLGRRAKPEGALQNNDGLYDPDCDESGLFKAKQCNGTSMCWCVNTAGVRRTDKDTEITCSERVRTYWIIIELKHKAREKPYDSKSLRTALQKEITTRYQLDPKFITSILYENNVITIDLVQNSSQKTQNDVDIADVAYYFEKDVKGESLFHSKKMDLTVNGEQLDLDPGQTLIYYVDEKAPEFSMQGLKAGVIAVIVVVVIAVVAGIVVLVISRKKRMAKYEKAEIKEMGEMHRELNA

EpCAM [2] = target: T1, EpCAM; assay: Binding activity against EpCAM after oxidation treatment (S—S bond formation, HPLC fractionation)
EpCAM on HT-29 = target: T2, EpCAM on HT-29 (Homo sapiens, UniProt P16422); assay: Staining of spheroid-cultured HT-29 cells with FITC-modified peptide; format: cell-based; design: endogenous in cells; host or cells: HT-29; conditions: FITC-labeled peptide, 0.4 μM
T2 sequence (P16422 24-314): T1 sequence (P16422 24-314)
Procedure: The HT-29 cells as EpCAM-expressing cells were cultured by spheroid culture method as follows: 4×10^5 cells are suspended in 3 ml of D-MEM/F-12 medium (Dulbecco's Modified n Eagle Medium:Nutrient Mixture 12, 1:1 mixture) (Gibco/Life Technologies Inc.) supplemented with 20 ng/ml human EGF (Miltenyi Biotec K.K.), 20 ng/ml human EGF-2 (Miltenyi Biotec K.K.), B-27 (Gibco/Life Technologies Inc.), penicillin, and streptomycin and inoculated to EZ-Sphere®, a Petri dish of 3.5 cm in diameter coated with MPC polymer. After static culture for 72 hours, the cells were collected while the medium was suspended by pipetting. The cells were stained with the FITC-modified peptide and observed under a fluorescence microscope. […]

[3] = S—S bond formation (autoxidation) of peptide by fluorescence depolarization method and HPLC; format: physicochemical
Text: The S—S bond formation of Ep114 was studied in detail using the fluorescence depolarization method and HPLC.

EpCAM [4] = target: T3, EpCAM (Homo sapiens, UniProt P16422); assay: Dissociation constant of EpCAM-binding peptide and EpCAM by fluorescence depolarization method; conditions: immediately after chemical synthesis, no oxidation
T3 construct: with insertions myc and His tags at the C terminus of the extracellular domain; myc (C); made in house; host or cells: HEK-293T
T3 sequence (P16422 24-265 limits assumed): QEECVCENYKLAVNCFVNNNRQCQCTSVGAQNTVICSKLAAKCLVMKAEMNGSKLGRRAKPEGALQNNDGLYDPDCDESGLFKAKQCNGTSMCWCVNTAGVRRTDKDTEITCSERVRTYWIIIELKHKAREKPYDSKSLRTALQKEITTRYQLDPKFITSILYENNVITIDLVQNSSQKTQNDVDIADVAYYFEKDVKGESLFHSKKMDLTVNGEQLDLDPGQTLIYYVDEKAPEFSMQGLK
Procedure: The obtained EpCAM peptides were assayed for their strength of binding to EpCAM by the fluorescence depolarization method, which is a method for evaluating the interaction between molecules. Each fluorescently labeled EpCAM peptide and EpCAM are used to determine the strength of binding from the kinetics of depolarization by Brownian movement.
Each FITC-modified EpCAM peptide or control peptide was suspended at a concentration of approximately 100 μM in PBS. After centrifugation, the supernatant was collected and diluted 10-fold, and the absorbance was measured at 495 nm From the measurement value, the molar concentration of the peptide was determined using the formula of Beer-Lambert of the following expression 1: A=E×b×C [Expression 1]
EpCAM is diluted with PBS into several concentrations from 0 until reaching equilibrium (40 nM for the Ep133 peptide), and the FITC-modified peptide whose precise concentration has been measured by the aforementioned method is added to the dilutions thus prepared. The sample was left at a temperature for measurement for 30 minutes or longer and subjected to polarization measurement using a spectrofluorometer FP-6500 (JASCO Corp.) equipped with an automatic polarization measurement unit (JASCO Corp., APH-103). Kd was estimated by curve fitting according to the Hill equation.
The dissociation constants of the two types of peptides Ep133 (FIG. 2(A)) and Ep114 (FIG. 2(C)), which were obtained in the present invention and had the high ability to bind to EpCAM, were measured by the fluorescence depolarization method.
The dissociation constants of the EpCAM-binding peptide Ep301 (FIG. 2(D)) disclosed in Patent Literature 2 and Ep301 control (FIG. 2(E)), which was a control peptide derived from Ep301 by the substitution of cysteine at positions 5 and 10 by serine, and a sequence of EpCAM from residue 106 to 119 (FIG. 2(F)) having partial homology to EpCAM-binding peptides were measured similarly.

[5] = target: T4, EpCAM-expressing cells HT-29 (Homo sapiens, UniProt P16422); assay: Cell staining of HT-29 cells, confocal microscope; format: cell-based; conditions: HT-29, FITC-labeled peptide 0.4 μM, 37° C., 1 hour
T4 construct: EpCAM on HT-29 was stained at a concentration of 0.4 μM; endogenous in cells; host or cells: HT-29
T4 sequence (P16422 24-314): T1 sequence (P16422 24-314)
Procedure: (§1) The EpCAM-expressing cells HT-29 or the non-expressing cells Hs578T were cultured in a medium containing 10% fetal calf serum in a Petri dish for 48 hours and then incubated at 37° C. for 1 hour with the FITC-labeled Ep114 peptide or a L3A control labeled peptide at a final concentration of 0.4 μM Immediately thereafter, the cells were observed under a confocal microscope.

MCF-7 cells = target: T5, MCF-7 cells (Homo sapiens, UniProt P16422); assay: Staining of EpCAM in MCF-7 cells; format: cell-based; conditions: data not shown
T5 construct: in MCF-7 cells known to express EpCAM; endogenous in cells; host or cells: MCF-7
T5 sequence (P16422 24-314): T1 sequence (P16422 24-314)
Procedure: The HT-29 cells as EpCAM-expressing cells were cultured by spheroid culture method as follows: 4×10^5 cells are suspended in 3 ml of D-MEM/F-12 medium (Dulbecco's Modified n Eagle Medium:Nutrient Mixture 12, 1:1 mixture) (Gibco/Life Technologies Inc.) supplemented with 20 ng/ml human EGF (Miltenyi Biotec K.K.), 20 ng/ml human EGF-2 (Miltenyi Biotec K.K.), B-27 (Gibco/Life Technologies Inc.), penicillin, and streptomycin and inoculated to EZ-Sphere®, a Petri dish of 3.5 cm in diameter coated with MPC polymer. After static culture for 72 hours, the cells were collected while the medium was suspended by pipetting. The cells were stained with the FITC-modified peptide and observed under a fluorescence microscope. The staining was carried out by adding 4 μM peptide into a McCoy's 5A medium and standing still at room temperature for 30 minutes.
In addition to HT-29 cells, the staining of EpCAM using Ep114 was also confirmed by a similar method in MCF-7 cells known to express EpCAM (data not shown).

[6] = target: T6, 293T cells transfected with full-length EpCAM gene (Homo sapiens, UniProt P16422); assay: Staining of 293T cells forced to express EpCAM with FITC-modified peptide; format: cell-based; conditions: FITC-modified peptide with or without oxidation treatment
T6 construct: an expression plasmid in which the full-length EpCAM gene incorporated; expressed in transfected cells; host or cells: 293T
T6 sequence (P16422 24-314): T1 sequence (P16422 24-314)
Text: 293T cells expressing no endogenous EpCAM were transfected with pkk196, an expression plasmid in which the full-length EpCAM gene incorporated, and forced to express EpCAM, followed by staining using FITC-modified Ep114.

[7] = tested on: non-EpCAM-expressing cells Hs578T; assay: Cell staining of Hs578T cells, confocal microscope; format: cell-based; conditions: FITC-labeled peptide 0.4 μM, 37° C., 1 hour
Procedure: as §1

HT-29-derived exosomes = target: T7, HT-29-derived exosomes (Homo sapiens, UniProt P16422); assay: ELISA with immobilized biotinylated peptide and HT-29-derived exosomes; format: binding; conditions: increasing HT-29-derived exosomes
T7 construct: endogenous in cells; host or cells: exosomes from HT-29 cells
T7 sequence (P16422 24-314): T1 sequence (P16422 24-314)
Procedure: was immobilized onto an ELISA plate via streptavidin, and HT-29-derived exosomes were added thereto and reacted. After washing, bound exosomes were detected using the anti-EpCAM antibody. The biotin-modified peptide PE194 of the L3A variant was immobilized in the same way as above and used as a control.

binding activity against EpCAM (EpCAM [2])	staining of EpCAM on HT-29 spheroids (EpCAM on HT-29)	binding activity against EpCAM (EpCAM [4])	staining of EpCAM (MCF-7 cells)	ability to stain EpCAM [6]	ELISA signal (HT-29-derived exosomes)	Structure (SMILES)	ability of the peptide to bind to EpCAM (EpCAM [1])	S—S bond formation ([3]; in PBS at 4° C. or frozen at −20° C., data not shown)	oxidation ([3]; in the presence of 10% FCS)	staining of cell membrane portions [5]	staining [7]
gain binding activity against EpCAM						CC[C@H](C)[C@@H]1NC(=O)[C@@H](NC(=O)[C@H](CCC(N)=O)NC(=O)[C@H](CC(C)C)NC(=O)[C@H](CO)NC(=O)[C@@H](N)CCCCN)CSSC[C@@H](C(=O)N[C@@H](Cc2c[nH]c3ccccc23)C(=O)N2CCC[C@H]2C(=O)O)NC(=O)[C@H](CC(C)C)NC(=O)[C@H](CC(N)=O)NC(=O)[C@H](CC(N)=O)NC1=O [Ep301, KSLQCINNLCWP, reference compound] (H-KSLQCINNLCWP-OH; disulfide 5-10; N-terminus and C-terminus assumed)	weak				
	stained	no binding activity against EpCAM	confirmed	equivalent ability to stain EpCAM	enhancement in ELISA signal was observed	CC[C@H](C)[C@@H]1NC(=O)[C@H](CC(N)=O)NC(=O)[C@H](CCCNC(=N)N)NC(=O)[C@H](C(C)C)NC(=O)[C@@H](NC(=O)[C@H](CCC(N)=O)NC(=O)[C@H](CC(C)C)NC(=O)[C@H](Cc2c[nH]cn2)NC(=O)[C@@H](N)CCCCN)CSSC[C@@H](C(=O)N[C@@H](Cc2c[nH]c3ccccc23)C(=O)N[C@@H](CO)C(=O)O)NC1=O [Ep114, KHLQCVRNICWS] (H-KHLQCVRNICWS-OH; disulfide 5-10; N-terminus and C-terminus assumed)		oxidized after 10 days to form an S—S bond	rapidly oxidized	staining of the cell membrane portions of the EpCAM-expressing cells HT-29 was observed	no staining was observed
